Assay [1] has as its target T1, IRE1a (Homo sapiens, UniProt O75460). Nature of the assay: IRE1a Endoribonuclease Nanoluciferase Assay (XBP1 luciferase reporter in 293 T cells). As to conditions: 293 T cells transfected with XBP1 luciferase reporter plasmid. Type of assay: cell-based. How it is done: Compounds disclosed herein were assessed for disruption of IRE1 signaling using a IRE1a Endoribonuclease Nanoluciferase Assay. Briefly, 2.5×10^6 293 T cells were seeded in a 10 cm^2 tissue culture plate. About 24 hours later, the cells were transfected with Effectene. In a 15 mL Tube, the following was added: 2 μg XBP1 luciferase reporter plasmid (PGK-Luc2-P2A-XBP1u-Nanoluciferase-PEST); 300 μl EC buffer; and 16 μl Enhancer, followed by incubation at room temp for 5 minutes. Next, 60 μl Effectene (Qiagen 301427) was added, followed by incubation at room temperature for 10 minutes. 2.6 mL cDMEM media was added. Old media was aspirated from the cells, followed by addition of 7 mL fresh media. Full transfection mixture was added dropwise to cells. Cells were incubated for 6 hours, followed by tripsinization, centrifugation and resuspension in 11 mL media. 100 uL of cells were plated per a well in a 96 well plate. A day later, stressors of choice+/− inhibitors were added. To harvest, media was aspirated from cells completely, then 50 uL 1× passive lysis buffer (Promega: E1941) was added per well and put on shaker (300 rpm) for 30 minutes at room temperature. Cells were centrifuged, and 15 uL sample per well was added to a new, opaque white 384 well plate (Corning 3570). 15 uL OneGlo (nanoluciferase kit, Promega N1630) was added. Plates were spun down, placed on shaker (300 rpm) for 10 minutes. Plates were read on luminometer, 1000 ms integration time per well. 15 uL Stop and Glo (nanoluciferase kit) was added. Plates were spun down, placed on shaker (300 rpm) for 10 minutes. Plates were read on luminometer, 1000 ms second integration time per well. Recordings are provided below in Table 4.

Assay [2] concerns the target T1, IRE1a. Nature of the assay: In vitro FRET assay (XBP1 RNA probe cleavage by IRE1a). Type of assay: biochemical. More on the design: purchased SignalChem. As to conditions: SignalChem IRE1a protein 2 nM. The procedure: In vitro FRET assay was performed to evaluate the ability of select compounds to inhibit IRE1, the results of which are summarized in Table 3. To perform the in vitro FRET assay, 1× complete assay buffer (CAB; […] DTT, 50 mM sodium citrate pH 7.15, 1 mM magnesium acetate, 0.02% tween 20) was used to dilute SignalChem IRE1a protein to a final concentration of 2 nM. Selected compounds were serially diluted with DMSO in a non-binding black 384-well plate for a total of 15 ul in each well. 2 ul of the serially diluted compound or DMSO control were then added to new wells containing 98 ul of 1×CAB, for a total volume of 100 ul, 10 ul of which were then transferred to wells of a new plate. 5 ul of the diluted IRE1a was then added to each well. 5 ul of a […] XBP1 RNA probe was then added to each well. Fluorescence was then read over 30 minutes in kinetic mode (485/515 nm).
Two RNA probes were used, XBP1 wildtype (SEQ ID NO: 2) which is able to be spliced by active IRE1a or XBP1 mutant (SEQ ID NO: 3) which is unable to be spliced. Each probe contained a 5′ 6-FAM modification and a 3′ IOWA Black FQ modification.

One may read the EC50 as the concentration needed to bring the measured effect to its halfway point. A word on the IC50: it is the concentration needed to halve the response being measured. High values mean lower potency, low ones higher potency.

SMILES strings stand for the structures. A value given as a limit tells only on which side of the number the result lay.

T1 sequence (O75460 19-977): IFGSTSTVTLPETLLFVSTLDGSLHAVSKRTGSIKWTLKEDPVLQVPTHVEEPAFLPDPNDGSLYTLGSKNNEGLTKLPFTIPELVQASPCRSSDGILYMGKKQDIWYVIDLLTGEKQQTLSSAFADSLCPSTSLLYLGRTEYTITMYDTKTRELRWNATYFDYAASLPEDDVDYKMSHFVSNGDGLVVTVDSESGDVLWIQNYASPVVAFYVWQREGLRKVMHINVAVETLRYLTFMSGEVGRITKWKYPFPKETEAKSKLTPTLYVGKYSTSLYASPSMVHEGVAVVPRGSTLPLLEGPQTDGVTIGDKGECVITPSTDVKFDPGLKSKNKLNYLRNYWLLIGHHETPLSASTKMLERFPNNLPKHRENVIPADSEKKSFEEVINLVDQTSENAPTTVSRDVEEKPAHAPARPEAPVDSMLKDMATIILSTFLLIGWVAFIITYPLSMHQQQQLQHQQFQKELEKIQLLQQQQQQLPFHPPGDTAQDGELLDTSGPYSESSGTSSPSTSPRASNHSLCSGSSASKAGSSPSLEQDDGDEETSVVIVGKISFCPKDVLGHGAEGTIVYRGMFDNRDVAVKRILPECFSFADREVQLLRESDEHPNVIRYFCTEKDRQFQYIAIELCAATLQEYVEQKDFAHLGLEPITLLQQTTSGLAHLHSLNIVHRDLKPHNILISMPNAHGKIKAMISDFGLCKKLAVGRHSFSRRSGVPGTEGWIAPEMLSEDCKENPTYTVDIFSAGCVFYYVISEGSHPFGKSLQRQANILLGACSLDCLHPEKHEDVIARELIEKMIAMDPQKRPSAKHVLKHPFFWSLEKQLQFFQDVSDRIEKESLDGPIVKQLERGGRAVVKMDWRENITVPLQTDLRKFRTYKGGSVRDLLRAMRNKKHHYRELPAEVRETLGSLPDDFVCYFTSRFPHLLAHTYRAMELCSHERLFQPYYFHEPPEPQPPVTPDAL

`CCc1cc(-c2cc(NC(=O)Cc3cc(F)ccc3C(F)(F)F)nn2C)cc2cnc(N[C@H]3CC[C@H](N)CC3)nc12` [Compound 13, N-(5-(2-(((1r,4r)-4-aminocyclohexyl)amino)-8-ethylquinazolin-6-yl)-1-methyl-1H-pyrazol-3-yl)-2-(5-fluoro-2-(trifluoromethyl)phenyl)acetamide]: in assay [1], the EC50 is > 100 nM. In assay [2], the concentration for half-maximal inhibition (IC50) lay within 5 to 50 nM.
For the compound `CCc1cc(-c2cc(NC(=O)C(CC)c3ccccc3)nn2C)cc2cnc(N[C@H]3CC[C@H](N)CC3)nc12` (stereo partly drawn) [Compound 16, N-(5-(2-(((1r,4r)-4-aminocyclohexyl)amino)-8-ethylquinazolin-6-yl)-1-methyl-1H-pyrazol-3-yl)-2-phenylbutanamide], the EC50 in assay [1] is > 100 nM. Further, in assay [2], the IC50 is ≤ 5 nM.
For the compound `CCc1cc(-c2cc(NC(=O)Cc3ccc(Cl)c(C(F)(F)F)c3)nn2C)cc2cnc(N[C@H]3CC[C@H](N)CC3)nc12` [Compound 18, N-(5-(2-(((1r,4r)-4-aminocyclohexyl)amino)-8-ethylquinazolin-6-yl)-1-methyl-1H-pyrazol-3-yl)-2-(4-chloro-3-(trifluoromethyl)phenyl)acetamide], in assay [1], the EC50 was > 100 nM. The same compound had an IC50 in assay [2] of 5 to 50 nM.
The like results for `CCc1cc(-c2cc(NC(=O)Nc3cccc(C(F)(F)F)c3)nn2C)cc2cnc(N[C@H]3CC[C@H](N)CC3)nc12` [Compound 19, 1-(5-(2-(((1r,4r)-4-aminocyclohexyl)amino)-8-ethylquinazolin-6-yl)-1-methyl-1H-pyrazol-3-yl)-3-(3-(trifluoromethyl)phenyl)urea] were, in that order, 5 to 50 nM and ≤ 5 nM.
The like results for `CCc1cc(-c2cc(NC(=O)C(C)c3cccc(C(F)(F)F)c3)nn2C)cc2cnc(N[C@H]3CC[C@H](N)CC3)nc12` (stereo partly drawn) [Compound 25, N-(5-(2-(((1r,4r)-4-aminocyclohexyl)amino)-8-ethylquinazolin-6-yl)-1-methyl-1H-pyrazol-3-yl)-2-(3-(trifluoromethyl)phenyl)propanamide] were, in that order, > 100 nM and 5 to 50 nM.
With `CCc1cc(-c2cc(NC(=O)Cc3cc(C)cc(F)c3)nn2C)cc2cnc(N[C@H]3CC[C@H](N)CC3)nc12` [Compound 27, N-(5-(2-(((1r,4r)-4-aminocyclohexyl)amino)-8-ethylquinazolin-6-yl)-1-methyl-1H-pyrazol-3-yl)-2-(3-fluoro-5-methylphenyl)acetamide], the EC50 in assay [1] is > 100 nM. This compound also displayed a half-maximal inhibitory concentration (IC50) in assay [2] of 5 to 50 nM.
The like results for `CCc1cc(-c2cc(NC(=O)Nc3ccc(OCCCNC)c(C(F)(F)F)c3)nn2C)cc2cnc(N[C@H]3CC[C@H](N)CC3)nc12` [Compound 29, 1-(5-(2-(((1r,4r)-4-aminocyclohexyl)amino)-8-ethylquinazolin-6-yl)-1-methyl-1H-pyrazol-3-yl)-3-(4-(3-(methylamino)propoxy)-3-(trifluoromethyl)phenyl)urea] were, in that order, ≤ 5 nM and ≤ 5 nM.
The like results for `CCc1cc(-c2cc(NC(=O)Cc3ccc(OCCCNC)c(C(F)(F)F)c3)nn2C)cc2cnc(N[C@H]3CC[C@H](N)CC3)nc12` [Compound 30, N-(5-(2-(((1r,4r)-4-aminocyclohexyl)amino)-8-ethylquinazolin-6-yl)-1-methyl-1H-pyrazol-3-yl)-2-(4-(3-(methylamino)propoxy)-3-(trifluoromethyl)phenyl)acetamide] were, in that order, 5 to 50 nM and ≤ 5 nM.
The like results for `Cn1nc(NC(=O)Cc2cccc(C(F)(F)F)c2)cc1-c1cc2cnc(N[C@H]3CC[C@H](N)CC3)nc2c2ccccc12` [Compound 31, N-(5-(2-(((1r,4r)-4-aminocyclohexyl)amino)benzo[h]quinazolin-6-yl)-1-methyl-1H-pyrazol-3-yl)-2-(3-(trifluoromethyl)phenyl)acetamide] were, in that order, > 100 nM and > 100 nM.
As for `CCc1cc(-c2cc(NC(=O)Cc3ccc(OC4CCN(C)CC4)c(C(F)(F)F)c3)nn2C)cc2cnc(N[C@H]3CC[C@H](N)CC3)nc12` [Compound 32, N-(5-(2-(((1r,4r)-4-aminocyclohexyl)amino)-8-ethylquinazolin-6-yl)-1-methyl-1H-pyrazol-3-yl)-2-(4-((1-methylpiperidin-4-yl)oxy)-3-(trifluoromethyl)phenyl)acetamide], in assay [1], the EC50 was ≤ 5 nM. Also, the IC50 in assay [2] was ≤ 5 nM.
`CCc1cc(-c2cc(NC(=O)Cc3cc(C(F)(F)F)ccc3C)nn2C)cc2cnc(N[C@H]3CC[C@H](N)CC3)nc12` [Compound 34, N-(5-(2-(((1r,4r)-4-aminocyclohexyl)amino)-8-ethylquinazolin-6-yl)-1-methyl-1H-pyrazol-3-yl)-2-(2-methyl-5-(trifluoromethyl)phenyl)acetamide]: the EC50 in assay [1] lay within 5 to 50 nM. The 50% inhibitory concentration (IC50) in assay [2] is ≤ 5 nM.
The like results for `CCc1cc(-c2cc(NC(=O)Nc3cc(C(F)(F)F)ccc3C(F)(F)F)nn2C)cc2cnc(N[C@H]3CC[C@H](N)CC3)nc12` [Compound 35, 1-(5-(2-(((1r,4r)-4-aminocyclohexyl)amino)-8-ethylquinazolin-6-yl)-1-methyl-1H-pyrazol-3-yl)-3-(2,5-bis(trifluoromethyl)phenyl)urea] were, in that order, 5 to 50 nM and ≤ 5 nM.
The like results for `CCc1cc(-c2cc(CC(=O)Nc3ccc(OCCCNC)c(C(F)(F)F)c3)nn2C)cc2cnc(N[C@H]3CC[C@H](N)CC3)nc12` [Compound 37, 2-(5-(2-(((1r,4r)-4-aminocyclohexyl)amino)-8-ethylquinazolin-6-yl)-1-methyl-1H-pyrazol-3-yl)-N-(4-(3-(methylamino)propoxy)-3-(trifluoromethyl)phenyl)acetamide] were, in that order, 5 to 50 nM and ≤ 5 nM.
In the case of `CCc1cc(-c2cc(NC(=O)Cc3cccc(C(F)(F)F)c3)nn2C)cc2cnc(N[C@H]3CC[C@H](N(C)C)CC3)nc12` [Compound 39, N-(5-(2-(((1r,4r)-4-(dimethylamino)cyclohexyl)amino)-8-ethylquinazolin-6-yl)-1-methyl-1H-pyrazol-3-yl)-2-(3-(trifluoromethyl)phenyl)acetamide], in assay [1], the EC50 fell in the range of 5 to 50 nM. Also, the IC50 in assay [2] was ≤ 5 nM.
The like results for `CCc1cc(-c2cc(NC(=O)Cc3cccc(C(F)(F)F)c3)nn2C)cc2cnc(N[C@H]3CC[C@H](NCCOC)CC3)nc12` [Compound 40, N-(5-(8-ethyl-2-(((1r,4r)-4-((2-methoxyethyl)amino)cyclohexyl)amino)quinazolin-6-yl)-1-methyl-1H-pyrazol-3-yl)-2-(3-(trifluoromethyl)phenyl)acetamide] were, in that order, 50 to 100 nM and ≤ 5 nM.
The like results for `CCc1cc(-c2cc(NC(=O)Cc3cc(C(F)(F)F)ccc3C(F)(F)F)nn2C)cc2cnc(N[C@H]3CC[C@H](NC(C)=O)CC3)nc12` [Compound 41, N-(5-(2-(((1r,4r)-4-acetamidocyclohexyl)amino)-8-ethylquinazolin-6-yl)-1-methyl-1H-pyrazol-3-yl)-2-(2,5-bis(trifluoromethyl)phenyl)acetamide] were, in that order, > 100 nM and > 100 nM.
In the case of `CCc1cc(-c2cc(NC(=O)Cc3cc(C(F)(F)F)ccc3C(F)(F)F)nn2C)cc2cnc(N[C@H]3CC[C@H](NC(=O)COC)CC3)nc12` [Compound 42, 2-(2,5-bis(trifluoromethyl)phenyl)-N-(5-(8-ethyl-2-(((1r,4r)-4-(2-methoxyacetamido)cyclohexyl)amino)quinazolin-6-yl)-1-methyl-1H-pyrazol-3-yl)acetamide], the EC50 in assay [1] is > 100 nM. For the same compound, the IC50 in assay [2] was > 100 nM.
With `CCc1cc(-c2cc(NC(=O)Cc3cc(C(F)(F)F)ccc3OC)nn2C)cc2cnc(N[C@H]3CC[C@H](N)CC3)nc12` [Compound 43, N-(5-(2-(((1r,4r)-4-aminocyclohexyl)amino)-8-ethylquinazolin-6-yl)-1-methyl-1H-pyrazol-3-yl)-2-(2-methoxy-5-(trifluoromethyl)phenyl)acetamide], the EC50 in assay [1] was 5 to 50 nM. Further, the IC50 in assay [2] was ≤ 5 nM.

The values above are taken from US10392367B2, “IRE1 small molecule inhibitors” (QUENTIS THERAPEUTICS, INC., priority 2017, dated 2019).
